Experimental data reported in US20210000792A1, “METHODS FOR REDUCING OR PREVENTING CARDIOVASCULAR EVENTS IN PATIENTS WITH TYPE II DIABETES MELLITUS” (Janssen Pharmaceutica NV, priority 2017, published 2021).

Columns and labels:
diabetic patients = settings: metformin on its own; cited from earlier work
[1] = system: men and women with type 2 diabetes and history or high risk of cardiovascular disease; test: CANVAS-R clinical trial, canagliflozin 100 mg with optional up-titration to 300 mg versus placebo; type: in vivo, human
Source text: (§1) Two clinical trials were completed to assess the cardiovascular safety and efficacy of canagliflozin, and how any potential benefits might balance against known risks. The complete protocols for said trials, name CANVAS and CANVAS-R, which protocols are each incorporated in their entirety herein, may be found on www.clinicaltrials.gov (more specifically at the following urls: https://clinicaltrials.gov/ct2/show/NCT01032629?term=canvas&rank=1 and https://clinicaltrials.gov/ct2/show/NCT01989754?term=canvas-r&rank=1, respectively).
(§2) All potential participants completed a 2-week, single-blind, placebo run-in period. Randomization was done centrally through an interactive web response system using a computer-generated randomization schedule prepared by the study sponsor using randomly permuted blocks. Participants in CANVAS were randomly assigned in a 1:1:1 ratio to canagliflozin 300 mg, canagliflozin 100 mg, or matching placebo, and participants in CANVAS-R were randomly assigned in a 1:1 ratio to canagliflozin or matching placebo administered at an initial dose of 100 mg daily with optional up-titration to 300 mg from week 13. Participants and all study staff were masked to individual treatment allocations until the completion of the study. Use of other background therapy for glycemic management and other risk factor control was according to best practice instituted in line with local guidelines including Renin Angiotensin System (RAS) blockade.
(§3) Post-randomization, face-to-face follow-up was scheduled for 3 visits in the first year and at 6-month intervals thereafter, with alternating telephone follow-up between face-to-face assessments. Every follow-up included inquiry about primary and secondary outcome events and serious adverse events. Urinary albumin:creatinine ratio was measured every 26 weeks in CANVAS-R, and at Week 12 and then annually in CANVAS. Serum creatinine measurement with estimation of glomerular filtration rate (eGFR) was performed at least every 26 weeks in both trials. Individuals that prematurely discontinued study treatment continued scheduled follow-up wherever possible, with extensive efforts made to obtain full outcome data for all during the final follow-up window that spanned November 2016 to February 2017.
(§4) The primary outcome was a composite of cardiovascular mortality, nonfatal myocardial infarction, or nonfatal stroke. Secondary outcomes were total mortality; cardiovascular mortality; progression of albuminuria; and the composite of cardiovascular mortality and hospitalization for heart failure. Progression of albuminuria grade was defined as a more then 30% increase in albuminuria and a switch from either normoalbuminuria to microalbuminuria or macroalbuminuria, or from microalbuminuria to macroalbuminuria. In the event that sequential testing was not significant for all then remaining outcomes were scheduled for assessment as exploratory variables in the integrated dataset.
(§5) Evaluation of total hospitalizations was also prespecified.
(§6) All major cardiovascular events, renal outcomes and deaths, plus selected safety outcomes were ratified by Endpoint Adjudication Committees. Intermediate markers of cardiovascular risk and requirement for antihyperglycemic agents were assessed to help understand the observed effects on cardiovascular and renal outcomes. Analyses of safety were of adverse events coded using the latest version of the MedDRA Dictionary. For bone fracture, the primary prespecified analysis was for low-trauma fracture events but secondary analysis of all fractures was also done. Amputations were assessed overall but numbers of cases above and below the ankle were also reported.
(§7) The primary hypothesis test was of noninferiority for the hazard ratio (HR) for the primary outcome at the margin of 1.3 for all canagliflozin versus placebo using the full integrated dataset and the intent to treat approach. […]

[2] = system: men and women with type 2 diabetes and history or high risk of cardiovascular disease; test: CANVAS clinical trial, canagliflozin 300 mg or 100 mg versus placebo; type: in vivo, human
Source text: as §1, §2, §3, §4, §5, §6, §7

[3] = system: men and women with type 2 diabetes and history or high risk of cardiovascular disease; test: CANVAS Program: integrated CANVAS and CANVAS-R clinical trials, canagliflozin versus placebo; type: in vivo, human; settings: for Cardiovascular mortality, hazard ratio (95% confidence interval) / Total (all-cause) mortality, hazard ratio (95% confidence interval): full integrated dataset; for Primary outcome (cardiovascular mortality, nonfatal myocardial infarction, or nonfatal stroke), hazard ratio (95% confidence interval): canagliflozin vs placebo; for Primary outcome (cardiovascular mortality, nonfatal myocardial infarction, or nonfatal stroke), events per 1000 patient-years: integrated database of CANVAS and CANVAS-R
Source text: as §1, §2, §3, §4, §5, §6, §7

[4] = vs placebo, listed as canagliflozin
[5] = CANVAS Program, vs placebo, listed as canagliflozin
[6] = CANVAS Program, canagliflozin group
[7] = canagliflozin compared to placebo, combined trials n=10,142
[8] = integrated CANVAS and CANVAS-R, canagliflozin group
[9] = integrated database with removal of all study time and mortality events accrued prior to Nov. 20, 2012
[10] = integrated database with removal of all study time and mortality events accrued prior to Nov. 20, 2012, vs placebo

## CN(C)C(=N)N=C(N)N [metformin]
Diabetic patients
  Average improvement in the HbA1c value: 1.0-1.5%

## Cc1ccc([C@@H]2O[C@H](CO)[C@@H](O)[C@H](O)[C@H]2O)cc1Cc1ccc(-c2ccc(F)cc2)s1 [Canagliflozin, canagliflozin]
[1]
  Albumin:creatinine ratio progression, events per 1000 patient-years: 99.80 per 1000 patient-years
  Cardiovascular death or hospitalization for heart failure, events per 1000 patient-years: 15.85 per 1000 patient-years
  Cardiovascular death, events per 1000 patient-years: 10.06 per 1000 patient-years
[1]; canagliflozin group
  40% reduction in eGFR, RRT, or renal death, n/N: 33/2907
  40% reduction in eGFR, RRT, renal death or macroalbuminuria, n/N: 112/2907
  40% reduction in eGFR, RRT, renal or CV death, n/N: 93/2907
  Cardiovascular mortality or hospitalization for heart failure, n/N: 95/2907
  Cardiovascular mortality, n/N: 61/2907
  Cardiovascular mortality, nonfatal myocardial infarction, or nonfatal stroke, n/N: 160/2907
  Hospitalization for heart failure, n/N: 38/2907
  Nonfatal myocardial infarction, n/N: 63/2907
  Nonfatal stroke, n/N: 52/2907
  Progression of albuminuria, n/N: 446/2541
  Regression of albuminuria, n/N: 451/893
  Total mortality, n/N: 99/2907
[1]; vs placebo
  40% reduction in eGFR, RRT, or renal death, hazard ratio (95% confidence interval): 0.71 (0.45-1.11)
  40% reduction in eGFR, RRT, renal death or macroalbuminuria, hazard ratio (95% confidence interval): 0.48 (0.38-0.60)
  40% reduction in eGFR, RRT, renal or CV death, hazard ratio (95% confidence interval): 0.82 (0.62-1.08)
  Cardiovascular mortality or hospitalization for heart failure, hazard ratio (95% confidence interval): 0.72 (0.55-0.94)
  Cardiovascular mortality, hazard ratio (95% confidence interval): 0.86 (0.61-1.22)
  Cardiovascular mortality, nonfatal myocardial infarction, or nonfatal stroke, hazard ratio (95% confidence interval): 0.82 (0.66-1.01)
  Hospitalization for heart failure, hazard ratio (95% confidence interval): 0.56 (0.38-0.83)
  Nonfatal myocardial infarction, hazard ratio (95% confidence interval): 0.85 (0.61-1.19)
  Nonfatal stroke, hazard ratio (95% confidence interval): 0.82 (0.57-1.18)
  Progression of albuminuria, hazard ratio (95% confidence interval): 0.64 (0.57-0.73)
  Regression of albuminuria, hazard ratio (95% confidence interval): 1.80 (1.55-2.09)
  Total mortality, hazard ratio (95% confidence interval): 0.92 (0.70-1.21)
[1]; [4]
  Progression of albuminuria, hazard ratio (95% confidence interval): 0.64
[2]; canagliflozin group
  40% reduction in eGFR, RRT, or renal death, n/N: 91/2888
  40% reduction in eGFR, RRT, renal death or macroalbuminuria, n/N: 292/2888
  40% reduction in eGFR, RRT, renal or CV death, n/N: 286/2888
  Cardiovascular mortality or hospitalization for heart failure, n/N: 269/2888
  Cardiovascular mortality, n/N: 207/2888
  Cardiovascular mortality, nonfatal myocardial infarction, or nonfatal stroke, n/N: 425/2888
  Hospitalization for heart failure, n/N: 85/2888
  Nonfatal myocardial infarction, n/N: 152/2888
  Nonfatal stroke, n/N: 106/2888
  Progression of albuminuria, n/N: 895/2655
  Regression of albuminuria, n/N: 434/786
  Total mortality, n/N: 301/2888
[2]; vs placebo
  40% reduction in eGFR, RRT, or renal death, hazard ratio (95% confidence interval): 0.56 (0.41-0.75)
  40% reduction in eGFR, RRT, renal death or macroalbuminuria, hazard ratio (95% confidence interval): 0.64 (0.54-0.76)
  40% reduction in eGFR, RRT, renal or CV death, hazard ratio (95% confidence interval): 0.74 (0.62-0.89)
  Cardiovascular mortality or hospitalization for heart failure, hazard ratio (95% confidence interval): 0.82 (0.67-0.99)
  Cardiovascular mortality, hazard ratio (95% confidence interval): 0.88 (0.70-1.10)
  Cardiovascular mortality, nonfatal myocardial infarction, or nonfatal stroke, hazard ratio (95% confidence interval): 0.88 (0.75-1.03)
  Hospitalization for heart failure, hazard ratio (95% confidence interval): 0.77 (0.55-1.08)
  Nonfatal myocardial infarction, hazard ratio (95% confidence interval): 0.85 (0.65-1.11)
  Nonfatal stroke, hazard ratio (95% confidence interval): 0.97 (0.70-1.35)
  Progression of albuminuria, hazard ratio (95% confidence interval): 0.80 (0.72-0.90)
  Regression of albuminuria, hazard ratio (95% confidence interval): 1.56 (1.30-1.87)
  Total mortality, hazard ratio (95% confidence interval): 0.84 (0.70-1.01)
[2]; [4]
  Progression of albuminuria, hazard ratio (95% confidence interval): 0.80
[3]; CANVAS Program, vs placebo
  Cardiovascular mortality, hazard ratio (95% confidence interval): 0.87 (0.72-1.06)
  Total (all-cause) mortality, hazard ratio (95% confidence interval): 0.87 (0.74-1.01)
  40% reduction in eGFR, RRT, or renal death, hazard ratio (95% confidence interval): 0.60 (0.47-0.77)
  40% reduction in eGFR, RRT, renal death or macroalbuminuria, hazard ratio (95% confidence interval): 0.57 (0.50-0.66)
  40% reduction in eGFR, RRT, renal or CV death, hazard ratio (95% confidence interval): 0.77 (0.66-0.89)
  Cardiovascular mortality or hospitalization for heart failure, hazard ratio (95% confidence interval): 0.78 (0.67-0.91)
  Hospitalization for heart failure, hazard ratio (95% confidence interval): 0.67 (0.52-0.87)
  Nonfatal myocardial infarction, hazard ratio (95% confidence interval): 0.85 (0.69-1.05)
  Nonfatal stroke, hazard ratio (95% confidence interval): 0.90 (0.71-1.15)
  Progression of albuminuria, hazard ratio (95% confidence interval): 0.73 (0.67-0.79)
  Regression of albuminuria, hazard ratio (95% confidence interval): 1.70 (1.51-1.91)
[3]; [5]
  Cardiovascular mortality, hazard ratio (95% confidence interval): 0.87
  Total (all-cause) mortality, hazard ratio (95% confidence interval): 0.87
  40% reduction in eGFR, RRT, or renal death, hazard ratio (95% confidence interval): 0.60
  Progression of albuminuria, hazard ratio (95% confidence interval): 0.73
[3]; [6]
  40% reduction in eGFR, RRT, or renal death, n/N: 124/5795
  40% reduction in eGFR, RRT, renal death or macroalbuminuria, n/N: 404/5795
  40% reduction in eGFR, RRT, renal or CV death, n/N: 379/5795
  Cardiovascular mortality or hospitalization for heart failure, n/N: 364/5795
  Cardiovascular mortality, n/N: 268/5795
  Cardiovascular mortality, nonfatal myocardial infarction, or nonfatal stroke, n/N: 585/5795
  Hospitalization for heart failure, n/N: 123/5795
  Nonfatal myocardial infarction, n/N: 215/5795
  Nonfatal stroke, n/N: 158/5795
  Progression of albuminuria, n/N: 1341/5196
  Regression of albuminuria, n/N: 885/1679
  Total mortality, n/N: 400/5795
[3]; CANVAS Program
  Primary outcome (cardiovascular mortality, nonfatal myocardial infarction, or nonfatal stroke), hazard ratio (95% confidence interval): 0.86 (0.75-0.97)
[3]; CANVAS Program, listed as canagliflozin
  Primary outcome (cardiovascular mortality, nonfatal myocardial infarction, or nonfatal stroke), hazard ratio (95% confidence interval): 0.86
[3]; canagliflozin compared to placebo group
  Use of other antihyperglycemic agents during follow-up, lower than placebo group: 9.3%
[3]; [7]
  Mean difference in body weight: -1.60 kg
  Mean difference in glycated hemoglobin: −0.58%
  Mean difference in systolic blood pressure: −3.93 mmHg
[3]; [8]
  Composite of sustained 40% reduction in eGFR, end-stage kidney disease or renal death, events per 1000 patient-years: 5.5 /1000 patient-years
  Progression of albuminuria grade, events per 1000 patient-years: 89.4 /1000 patient-years
[3]; canagliflozin group
  Primary outcome (cardiovascular mortality, nonfatal myocardial infarction, or nonfatal stroke), events per 1000 patient-years: 26.93 per 1000 patient-years
[3]; canagliflozin group, listed as canagliflozin
  Primary outcome (cardiovascular mortality, nonfatal myocardial infarction, or nonfatal stroke), events per 1000 patient-years: 26.9 per 1000 patient-years
[3]; [9]
  All-cause mortality, events per 1000 patient-years: 19.05 per 1000 patient-years
  Cardiovascular death, events per 1000 patient-years: 12.82 per 1000 patient-years
[3]; [10]
  All-cause mortality, hazard ratio (95% confidence interval): 0.90 (0.76-1.07)
  Cardiovascular death, hazard ratio (95% confidence interval): 0.96 (0.77-1.18)
[3]; multiple imputation for missing data, vs placebo
  Primary outcome hazard ratio when imputation for missing events was performed: 0.85
